# Data taken from patent publication US12398154B2, “Azaquinazoline pan-KRas inhibitors” (Mirati Therapeutics, Inc., priority 2020, dated 2025).
# pIC50: −log10 of the molar value.
# What was measured:
# pERK in H727 cells = assay: Inhibition of KRas phosphorylation of ERK (Cisbio HTRF pERK assay); conditions: Homo sapiens, NCI-H727, read-out: Inhibition (HTRF IC50) of KRas-mediated Phosphorylation of ERK, H727
# pERK in MKN1 cells = assay: as above; conditions: Homo sapiens, MKN-1, 3 h, read-out: Inhibition (HTRF IC50) of KRas-mediated Phosphorylation of ERK, MKN1
# pERK in HCT116 cells = assay: as above; conditions: Homo sapiens, HCT-116, read-out: Inhibition (HTRF IC50) of KRas-mediated Phosphorylation of ERK, HCT116
# KRas G12R = KRas G12R (Homo sapiens, UniProt P01116, G12R); assay: biochemical;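 note: TR-FRET displacement assay of compound binding to KRas, read after one hour at room temperature, potency from a four-parameter fit of percent-of-control values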
# Method: (§1) The ability of a compound to bind to KRas was measured using a TR-FRET displacement assay. […] After a 60-minute incubation at room temperature, the reaction was measured using a BMG LABTECH CLARIO star Plus via TR-FRET. […] The POC values were fit to a 4-parameter IC50 equation and the IC50 value reported.
# pERK in ASPC1 cells = assay: Inhibition of KRas phosphorylation of ERK (Cisbio HTRF pERK assay); conditions: Homo sapiens, ASPC1, read-out: Inhibition (HTRF IC50) of KRas-mediated Phosphorylation of ERK, AsPC-1
# KRas G12D = KRas G12D (Homo sapiens, UniProt P01116, G12D); assay: biochemical;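 note: TR-FRET displacement binding assay on KRas, read after a one-hour incubation at room temperature, IC50 fitted from percent-of-control values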
# Method: as §1
# pERK in PSN1 cells = assay: Inhibition of KRas phosphorylation of ERK (Cisbio HTRF pERK assay); conditions: Homo sapiens, PSN1, 3 h, read-out: Inhibition (HTRF IC50) of KRas-mediated Phosphorylation of ERK, PSN1
# KRas G12V = KRas G12V (Homo sapiens, UniProt P01116, G12V); assay: biochemical;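 note: KRas binding measured by TR-FRET displacement at room temperature, IC50 fitted from percent of control values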
# Chain of KRas G12V (P01116 1-169 isoform P01116-2 G12V): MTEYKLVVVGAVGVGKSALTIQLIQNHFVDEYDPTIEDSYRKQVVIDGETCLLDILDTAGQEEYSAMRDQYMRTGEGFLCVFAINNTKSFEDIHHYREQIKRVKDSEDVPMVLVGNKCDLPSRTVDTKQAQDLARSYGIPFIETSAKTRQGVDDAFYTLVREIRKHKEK
# Method: as §1
# Chain of KRas G12R (P01116 1-169 isoform P01116-2 G12R): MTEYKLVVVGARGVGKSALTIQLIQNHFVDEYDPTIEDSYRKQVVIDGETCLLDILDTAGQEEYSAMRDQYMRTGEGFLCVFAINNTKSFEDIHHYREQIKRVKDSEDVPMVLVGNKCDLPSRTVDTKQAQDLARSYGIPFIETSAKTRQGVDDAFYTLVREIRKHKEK
# Chain of KRas G12D (P01116 1-169 isoform P01116-2 G12D): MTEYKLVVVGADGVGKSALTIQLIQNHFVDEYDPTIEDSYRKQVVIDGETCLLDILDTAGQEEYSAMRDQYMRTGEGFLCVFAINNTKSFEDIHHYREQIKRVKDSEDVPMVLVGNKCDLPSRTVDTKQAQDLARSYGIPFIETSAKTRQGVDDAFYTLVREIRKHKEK
structure (smiles),measurement,setting,value
"O=C1NCC2(CCCN(c3nc(OC[C@@]45CCCN4C[C@H](F)C5)nc4c(F)c(-c5cc(O)cc6ccc(F)c(Br)c56)ncc34)C2)N1 (stereo partly drawn) [Example 409, 7-(7-(8-bromo-7-fluoro-3-hydroxynaphthalen-1-yl)-8-fluoro-2-(((2R,7aS)-2-fluorohexahydro-1H-pyrrolizin-7a-yl)methoxy)pyrido[4,3-d]pyrimidin-4-yl)-1,3,7-triazaspiro[4.5]decan-2-one]",pIC50,pERK in H727 cells,6.23
same,pIC50,pERK in MKN1 cells,7.03
same,pIC50,pERK in HCT116 cells,5.93
same,pIC50,KRas G12R,≥ 8.70
same,pIC50,pERK in ASPC1 cells,6.40
same,pIC50,KRas G12D,≥ 8.70
same,pIC50,pERK in PSN1 cells,≤ 5.00
same,pIC50,KRas G12V,≥ 8.70
"O=C1NC(=O)[C@]2(CCCN(c3nc(OC[C@@]45CCCN4C[C@H](F)C5)nc4c(F)c(-c5cc(O)cc6ccc(F)c(Cl)c56)ncc34)C2)N1 [Example 413, (R)-7-(7-(8-chloro-7-fluoro-3-hydroxynaphthalen-1-yl)-8-fluoro-2-(((2R,7aS)-2-fluorohexahydro-1H-pyrrolizin-7a-yl)methoxy)pyrido[4,3-d]pyrimidin-4-yl)-1,3,7-triazaspiro[4.5]decane-2,4-dione]",pIC50,pERK in H727 cells,6.39
same,pIC50,pERK in MKN1 cells,7.48
same,pIC50,pERK in HCT116 cells,6.32
same,pIC50,KRas G12R,8.52
same,pIC50,pERK in ASPC1 cells,6.32
same,pIC50,KRas G12D,≥ 8.70
same,pIC50,pERK in PSN1 cells,5.60
same,pIC50,KRas G12V,≥ 8.70
"OCC1COCCN(c2nc(OC[C@@]34CCCN3C[C@H](F)C4)nc3c(F)c(-c4cc(O)cc5ccc(F)c(Cl)c45)ncc23)C1 (stereo partly drawn) [Example 420, 5-chloro-6-fluoro-4-(8-fluoro-2-(((2R,7aS)-2-fluorohexahydro-1H-pyrrolizin-7a-yl)methoxy)-4-(6-(hydroxymethyl)-1,4-oxazepan-4-yl)pyrido[4,3-d]pyrimidin-7-yl)naphthalen-2-ol]",pIC50,pERK in H727 cells,6.44
same,pIC50,pERK in MKN1 cells,7.25
same,pIC50,pERK in HCT116 cells,5.88
same,pIC50,KRas G12R,8.40
same,pIC50,pERK in ASPC1 cells,6.07
same,pIC50,KRas G12D,8.52
same,pIC50,pERK in PSN1 cells,≤ 5.00
same,pIC50,KRas G12V,≥ 8.70
"CCc1c(F)ccc2cc(O)cc(-c3ncc4c(N5CCCCC6(C5)NC(=O)NC6=O)nc(OC[C@@]56CCCN5C[C@H](F)C6)nc4c3F)c12 (stereo partly drawn) [Example 338, 7-(7-(8-ethyl-7-fluoro-3-hydroxynaphthalen-1-yl)-8-fluoro-2-(((2R,7aS)-2-fluorotetrahydro-1H-pyrrolizin-7a(5H)-yl)methoxy)pyrido[4,3-d]pyrimidin-4-yl)-1,3,7-triazaspiro[4.6]undecane-2,4-dione]",pIC50,pERK in H727 cells,6.42
same,pIC50,pERK in MKN1 cells,7.62
same,pIC50,pERK in HCT116 cells,6.31
same,pIC50,KRas G12R,8.40
same,pIC50,pERK in ASPC1 cells,6.16
same,pIC50,KRas G12D,≥ 8.70
same,pIC50,pERK in PSN1 cells,5.54
same,pIC50,KRas G12V,8.52
"CCc1c(F)ccc2cc(O)cc(-c3ncc4c(NCC5CC(=O)NC5=O)nc(OC[C@@]56CCCN5C[C@H](F)C6)nc4c3F)c12 (stereo partly drawn) [Example 367, 3-(((7-(8-ethyl-7-fluoro-3-hydroxynaphthalen-1-yl)-8-fluoro-2-(((2R,7aS)-2-fluorohexahydro-1H-pyrrolizin-7a-yl)methoxy)pyrido[4,3-d]pyrimidin-4-yl)amino)methyl)pyrrolidine-2,5-dione]",pIC50,pERK in H727 cells,6.61
same,pIC50,pERK in MKN1 cells,7.24
same,pIC50,pERK in HCT116 cells,6.43
same,pIC50,KRas G12R,≥ 8.70
same,pIC50,pERK in ASPC1 cells,6.30
same,pIC50,KRas G12D,≥ 8.70
same,pIC50,pERK in PSN1 cells,≤ 5.00
same,pIC50,KRas G12V,≥ 8.70
"CCc1c(F)ccc2cc(O)cc(-c3ncc4c(NC5CCS(=O)(=O)C5)nc(OC[C@@]56CCCN5C[C@H](F)C6)nc4c3F)c12 (stereo partly drawn) [Example 349, 3-((7-(8-ethyl-7-fluoro-3-hydroxynaphthalen-1-yl)-8-fluoro-2-(((2R,7aS)-2-fluorotetrahydro-1H-pyrrolizin-7a(5H)-yl)methoxy)pyrido[4,3-d]pyrimidin-4-yl)amino)tetrahydrothiophene 1,1-dioxide]",pIC50,pERK in H727 cells,5.73
same,pIC50,pERK in MKN1 cells,6.83
same,pIC50,pERK in HCT116 cells,5.65
same,pIC50,KRas G12R,8.15
same,pIC50,pERK in ASPC1 cells,6.32
same,pIC50,KRas G12D,7.70
same,pIC50,pERK in PSN1 cells,≤ 5.00
same,pIC50,KRas G12V,8.40
"CCc1c(F)ccc2cc(O)cc(-c3ncc4c(N5CCCC(N6CCCS6(=O)=O)C5)nc(OC[C@@]56CCCN5C[C@H](F)C6)nc4c3F)c12 (stereo partly drawn) [Example 348, 2-(1-(7-(8-ethyl-7-fluoro-3-hydroxynaphthalen-1-yl)-8-fluoro-2-(((2R,7aS)-2-fluorotetrahydro-1H-pyrrolizin-7a(5H)-yl)methoxy)pyrido[4,3-d]pyrimidin-4-yl)piperidin-3-yl)isothiazolidine 1,1-dioxide]",pIC50,pERK in H727 cells,6.56
same,pIC50,pERK in MKN1 cells,8.15
same,pIC50,pERK in HCT116 cells,6.61
same,pIC50,KRas G12R,≥ 8.70
same,pIC50,pERK in ASPC1 cells,6.56
same,pIC50,KRas G12D,8.22
same,pIC50,pERK in PSN1 cells,≤ 5.00
same,pIC50,KRas G12V,8.52
"OCC1COCCN(c2nc(OC[C@@]34CCCN3C[C@H](F)C4)nc3c(F)c(-c4cc(O)cc5ccc(F)c(Br)c45)ncc23)C1 (stereo partly drawn) [Example 401, 5-bromo-6-fluoro-4-(8-fluoro-2-(((2R,7aS)-2-fluorohexahydro-1H-pyrrolizin-7a-yl)methoxy)-4-(6-(hydroxymethyl)-1,4-oxazepan-4-yl)pyrido[4,3-d]pyrimidin-7-yl)naphthalen-2-ol]",pIC50,pERK in H727 cells,6.60
same,pIC50,pERK in MKN1 cells,7.09
same,pIC50,pERK in HCT116 cells,5.94
same,pIC50,KRas G12R,≥ 8.70
same,pIC50,pERK in ASPC1 cells,6.79
same,pIC50,KRas G12D,≥ 8.70
same,pIC50,pERK in PSN1 cells,5.00
same,pIC50,KRas G12V,≥ 8.70
"O=C1NC(=O)C2CN(c3nc(OC[C@@]45CCCN4C[C@H](F)C5)nc4c(F)c(-c5cc(O)cc6ccc(F)c(Br)c56)ncc34)CC12 (stereo partly drawn) [Example 404, 5-(7-(8-bromo-7-fluoro-3-hydroxynaphthalen-1-yl)-8-fluoro-2-(((2R,7aS)-2-fluorohexahydro-1H-pyrrolizin-7a-yl)methoxy)pyrido[4,3-d]pyrimidin-4-yl)tetrahydropyrrolo[3,4-c]pyrrole-1,3(2H,3aH)-dione]",pIC50,pERK in H727 cells,6.09
same,pIC50,pERK in MKN1 cells,7.26
same,pIC50,pERK in HCT116 cells,5.86
same,pIC50,KRas G12R,≥ 8.70
same,pIC50,pERK in ASPC1 cells,6.87
same,pIC50,KRas G12D,≥ 8.70
same,pIC50,pERK in PSN1 cells,≤ 5.00
same,pIC50,KRas G12V,≥ 8.70
"C#Cc1c(F)ccc2cc(O)cc(-c3ncc4c(N5CCCC6(CNC6=O)C5)nc(OC[C@@]56CCCN5C[C@H](F)C6)nc4c3F)c12 (stereo partly drawn) [Example 392, 6-(7-(8-ethynyl-7-fluoro-3-hydroxynaphthalen-1-yl)-8-fluoro-2-(((2R,7aS)-2-fluorohexahydro-1H-pyrrolizin-7a-yl)methoxy)pyrido[4,3-d]pyrimidin-4-yl)-2,6-diazaspiro[3.5]nonan-1-one]",pIC50,pERK in H727 cells,5.86
same,pIC50,pERK in MKN1 cells,6.47
same,pIC50,pERK in HCT116 cells,5.65
same,pIC50,KRas G12R,8.52
same,pIC50,pERK in ASPC1 cells,5.93
same,pIC50,KRas G12D,≥ 8.70
same,pIC50,pERK in PSN1 cells,5.22
same,pIC50,KRas G12V,8.52
"CCc1c(F)ccc2cc(O)cc(-c3ncc4c(N5CCOCC6(C5)NC(=O)NC6=O)nc(OC[C@@]56CCCN5C[C@H](F)C6)nc4c3F)c12 (stereo partly drawn) [Example 337, 10-(7-(8-ethyl-7-fluoro-3-hydroxynaphthalen-1-yl)-8-fluoro-2-(((2R,7aS)-2-fluorohexahydro-1H-pyrrolizin-7a-yl)methoxy)pyrido[4,3-d]pyrimidin-4-yl)-7-oxa-1,3,10-triazaspiro[4.6]undecane-2,4-dione]",pIC50,pERK in H727 cells,6.40
same,pIC50,pERK in MKN1 cells,7.31
same,pIC50,pERK in HCT116 cells,6.36
same,pIC50,KRas G12R,8.30
same,pIC50,pERK in ASPC1 cells,6.29
same,pIC50,KRas G12D,8.52
same,pIC50,pERK in PSN1 cells,5.73
same,pIC50,KRas G12V,8.52
"CCc1c(F)ccc2cc(O)cc(-c3ncc4c(N5CC6CCC(C6)C5)nc(OC[C@@]56CCCN5C[C@H](F)C6)nc4c3F)c12 [Example 350, 4-(4-(3-azabicyclo[3.2.I]octan-3-yl)-8-fluoro-2-(((2R,7aS)-2-fluorohexahydro-1H-pyrrolizin-7a-yl)methoxy)pyrido[4,3-d]pyrimidin-7-yl)-5-ethyl-6-fluoronaphthalen-2-ol]",pIC50,pERK in H727 cells,6.48
same,pIC50,pERK in MKN1 cells,6.68
same,pIC50,pERK in HCT116 cells,6.10
same,pIC50,KRas G12R,8.10
same,pIC50,pERK in ASPC1 cells,6.62
same,pIC50,KRas G12D,7.52
same,pIC50,pERK in PSN1 cells,≤ 5.00
same,pIC50,KRas G12V,8.10
"O=C1NC[C@]2(CCCN(c3nc(OC[C@@]45CCCN4C[C@H](F)C5)nc4c(F)c(-c5cc(O)cc6ccc(F)c(Cl)c56)ncc34)C2)N1 [Example 415, (S)-7-(7-(8-chloro-7-fluoro-3-hydroxynaphthalen-1-yl)-8-fluoro-2-(((2R,7aS)-2-fluorohexahydro-1H-pyrrolizin-7a-yl)methoxy)pyrido[4,3-d]pyrimidin-4-yl)-1,3,7-triazaspiro[4.5]decan-2-one]",pIC50,pERK in H727 cells,6.04
same,pIC50,pERK in MKN1 cells,7.34
same,pIC50,pERK in HCT116 cells,5.59
same,pIC50,KRas G12R,8.52
same,pIC50,pERK in ASPC1 cells,6.26
same,pIC50,KRas G12D,≥ 8.70
same,pIC50,pERK in PSN1 cells,≤ 5.00
same,pIC50,KRas G12V,7.40
"Cc1c(F)ccc2cc(O)cc(-c3ncc4c(N5CCCC(CS(N)(=O)=O)C5)nc(OC[C@@]56CCCN5C[C@H](F)C6)nc4c3F)c12 (stereo partly drawn) [Example 461, 1-(1-(8-fluoro-7-(7-fluoro-3-hydroxy-8-methylnaphthalen-1-yl)-2-(((2R,7aS)-2-fluorohexahydro-1H-pyrrolizin-7a-yl)methoxy)pyrido[4,3-d]pyrimidin-4-yl)piperidin-3-yl)methanesulfonamide]",pIC50,pERK in H727 cells,6.62
same,pIC50,pERK in MKN1 cells,7.74
same,pIC50,pERK in HCT116 cells,6.76
same,pIC50,KRas G12R,≥ 8.70
same,pIC50,pERK in ASPC1 cells,5.94
same,pIC50,KRas G12D,≥ 8.70
same,pIC50,pERK in PSN1 cells,5.42
same,pIC50,KRas G12V,≥ 8.70
